The text below walks through data of patent US20120101083A1, “S1P1 AGONISTS COMPRISING A BICYCLIC N-CONTAINING RING” (GLAXO GROUP LIMITED, priority 2009, published 2012).

For experiment [1], the target named is T1, S1P1 receptor (S1P1 expressing RH7777 membranes) (Homo sapiens, UniProt P21453).
T1 construct: expressed in transfected cells; host or cells: RH7777 cells (membranes)
In words: S1P1 GTPγS assay. Type of experiment: biochemical. The settings on record: tested in one of the above S1P1 assays (two GTPγS formats). The method, boiled down:
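Membranes from RH7777 cells expressing human S1P1 (1.5 μg/well) precoupled 30 min on ice to WGA SPA beads in 20 mM HEPES pH 7.4, 10 mM MgCl2, 100 mM NaCl, with 10 μM GDP and 90 μg/ml saponin. [35S]-GTPγS 0.5 nM final added with compound; SPA signal read immediately.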

The target in experiment [2] is T2, S1P1 (PathHunter CHO-K1 EDG1 β-Arrestin cell line) (Homo sapiens, UniProt P21453).
T2 construct: host or cells: PathHunter CHO-K1 EDG1 β-Arrestin cell line
Briefly: S1P-1 β-Arrestin recruitment assay. Type of experiment: cell-based. The settings on record: CHO-K1 EDG1 β-Arrestin cells, chemi-luminescence. The method in brief: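 CHO-K1 cells expressing S1P1 and β-arrestin 2 fused to complementing β-galactosidase fragments, at 1×10^4 cells/well in pH 7.4 buffer with 0.1% BSA. Compound exposure 90 min at 37 °C then 15 min room temperature; chemiluminescent substrate added for 60 min before luminescence read.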

Where a name gives a salt, the structure may show the parent alone.

T1 sequence (P21453 whole entry): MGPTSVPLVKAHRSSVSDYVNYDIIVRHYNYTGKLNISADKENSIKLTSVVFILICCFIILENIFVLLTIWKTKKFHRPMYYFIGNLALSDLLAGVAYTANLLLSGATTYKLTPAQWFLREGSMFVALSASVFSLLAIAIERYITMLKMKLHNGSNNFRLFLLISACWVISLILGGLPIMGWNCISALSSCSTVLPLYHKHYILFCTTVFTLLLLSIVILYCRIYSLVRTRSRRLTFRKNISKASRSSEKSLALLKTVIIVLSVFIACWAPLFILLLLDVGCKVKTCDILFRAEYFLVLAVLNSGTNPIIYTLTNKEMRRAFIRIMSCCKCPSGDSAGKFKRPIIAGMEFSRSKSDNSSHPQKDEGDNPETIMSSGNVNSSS
T2 sequence (P21453 whole entry): as above
T2 sequence (P32121 whole entry partner): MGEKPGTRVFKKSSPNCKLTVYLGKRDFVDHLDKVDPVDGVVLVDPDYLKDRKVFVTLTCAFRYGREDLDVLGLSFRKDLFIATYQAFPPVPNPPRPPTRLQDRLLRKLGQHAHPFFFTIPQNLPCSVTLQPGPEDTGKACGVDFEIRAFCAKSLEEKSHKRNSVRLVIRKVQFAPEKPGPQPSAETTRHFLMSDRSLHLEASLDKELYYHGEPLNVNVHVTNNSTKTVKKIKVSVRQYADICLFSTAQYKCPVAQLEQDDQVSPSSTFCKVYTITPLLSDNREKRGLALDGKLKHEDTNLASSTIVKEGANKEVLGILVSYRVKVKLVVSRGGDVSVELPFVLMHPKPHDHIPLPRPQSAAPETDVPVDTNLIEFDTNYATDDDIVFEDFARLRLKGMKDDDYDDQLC

On to `Cc1c(-c2noc(-c3ccc(OC(C)C)c(C#N)c3)n2)ccc2c1CCN(CCC(=O)N(C)C)C2` [Example 2, 3-[6-(5-{3-Cyano-4-[(1-methylethyl)oxy]phenyl}-1,2,4-oxadiazol-3-yl)-5-methyl-3,4-dihydro-2(1H)-isoquinolinyl]-N,N-dimethylpropanamide], for which the half-maximal effective concentration (EC50) in experiment [1] and in experiment [2] was no more than 0.1 µM throughout.
Consider `CC(C)Oc1ccc(-c2nc(-c3ccc4c(c3)CCN(CC(=O)N[C@H](C)CO)CC4)no2)cc1C#N` [Example 78, 2-[7-(5-{3-cyano-4-[(1-methylethyl)oxy]phenyl}-1,2,4-oxadiazol-3-yl)-1,2,4,5-tetrahydro-3H-3-benzazepin-3-yl]-N-(1R)-2-hydroxy-1-methylethyl]acetamide hydrochloride], for which the results for the 50% effective concentration (EC50) in experiment [1] and in experiment [2] were no more than 1 µM and no more than 0.1 µM, respectively.
With `CC(C)Oc1ccc(-c2nc(-c3ccc4c(c3)CCN(CC(=O)NC(CO)CO)CC4)no2)cc1C#N` [Example 195, 2-[7-(5-{3-cyano-4-[(1-methylethyl)oxy]phenyl}-1,2,4-oxadiazol-3-yl)-1,2,4,5-tetrahydro-3H-3-benzazepin-3-yl]-N-[2-hydroxy-1-(hydroxymethyl)ethyl]acetamide hydrochloride], the results for the EC50 in experiment [1] and in experiment [2] were no more than 0.1 µM and no more than 0.01 µM, respectively.
In the same order, the values of `CCNC(=O)CCCN1CCc2ccc(-c3noc(-c4ccc(OC(C)C)c(C#N)c4)n3)cc2CC1` [Example 44, 4-[7-(5-{3-cyano-4-[(1-methylethyl)oxy]phenyl}-1,2,4-oxadiazol-3-yl)-1,2,4,5-tetrahydro-3H-3-benzazepin-3-yl]-N-ethylbutanamide] are no more than 0.1 µM and no more than 0.01 µM.
For `N#Cc1cc(-c2nc(-c3ccc4c(c3)CCN(C[C@H](O)CO)CC4)no2)ccc1OCC(F)(F)F` [Example 135, 5-(3-{3-[(2S)-2,3-dihydroxypropyl]-2,3,4,5-tetrahydro-1H-3-benzazepin-7-yl}-1,2,4-oxadiazol-5-yl)-2-[(2,2,2-trifluoroethyl)oxy]benzonitrile], in that order: no more than 0.1 µM and no more than 0.1 µM.
For the compound `Cc1c(-c2noc(-c3ccc(OC(C)C)c(C#N)c3)n2)ccc2c1CCN(CC(=O)N1CC(O)C1)C2` [Example 123, 5-(3-{2-[2-(3-hydroxy-1-azetidinyl)-2-oxoethyl]-5-methyl-1,2,3,4-tetrahydro-6-isoquinolinyl}-1,2,4-oxadiazol-5-yl)-2-[(1-methylethyl)oxy]benzonitrile hydrochloride], the EC50 (in general, the concentration giving half of the maximal effect) in experiment [1] is no more than 0.1 µM; in experiment [2], no more than 0.01 µM.
In the same order, the values of `CNC(=O)CCN1CCc2c(ccc(-c3noc(-c4ccc(OC(C)C)c(C#N)c4)n3)c2C)C1` [Example 43, 3-[6-(5-{3-cyano-4-[(1-methylethyl)oxy]phenyl}-1,2,4-oxadiazol-3-yl)-5-methyl-3,4-dihydro-2(1H)-isoquinolinyl]-N-methylpropanamide] are no more than 0.01 µM and no more than 0.01 µM.
In the same order, the values of `Cc1c(-c2noc(-c3ccc(OC(C)C)c(C#N)c3)n2)ccc2c1CCN(C(=O)CNC[C@@H](C)O)C2` [Example 129, 5-[3-(2-{N-[(2R)-2-hydroxypropyl]glycyl}-5-methyl-1,2,3,4-tetrahydro-6-isoquinolinyl)-1,2,4-oxadiazol-5-yl]-2-[(1-methylethyl)oxy]benzonitrile hydrochloride] are greater than 10 µM and no more than 0.01 µM.
For `CC(C)Oc1ccc(-c2nc(-c3ccc4c(c3)CCN(C(=O)CN3CC(O)C3)CC4)no2)cc1C#N` [Example 106, 5-(3-{3-[(3-hydroxy-1-azetidinyl)acetyl]-2,3,4,5-tetrahydro-1H-3-benzazepin-7-yl}-1,2,4-oxadiazol-5-yl)-2-[(1-methylethyl)oxy]benzonitrile hydrochloride], in that order: no more than 1 µM and no more than 0.1 µM.
Turning to `Cc1c(-c2noc(-c3ccc(OC(C)C)c(C#N)c3)n2)ccc2c1CCN(CCCC(N)=O)C2` [Example 4, 4-[6-(5-{3-Cyano-4-[(1-methylethyl)oxy]phenyl}-1,2,4-oxadiazol-3-yl)-5-methyl-3,4-dihydro-2(1H)-isoquinolinyl]butanamide], the values for the EC50 in experiment [1] and in experiment [2] were no more than 0.1 µM and no more than 0.01 µM, respectively.
For `Cc1c(-c2noc(-c3ccc(OC(C)C)c(C#N)c3)n2)ccc2c1CCN(CC(=O)NCCO)C2` [Example 122, 2-[6-(5-{3-cyano-4-[(1-methylethyl)oxy]phenyl}-1,2,4-oxadiazol-3-yl)-5-methyl-3,4-dihydro-2(1H)-isoquinolinyl]-N-(2-hydroxyethyl)acetamide hydrochloride], in that order: no more than 0.01 µM and no more than 0.01 µM.
For `COCCN1CCc2c(ccc(-c3noc(-c4ccc(OC(C)C)c(C#N)c4)n3)c2C)C1` [Example 9, 2-[(1-Methylethyl)oxy]-5-(3-{5-methyl-2-[2-(methyloxy)ethyl]-1,2,3,4-tetrahydro-6-isoquinolinyl}-1,2,4-oxadiazol-5-yl)benzonitrile], in that order: no more than 0.1 µM and no more than 0.1 µM.
For `CNC(=O)CCCN1CCc2c(ccc(-c3noc(-c4ccc(OC(C)C)c(C#N)c4)n3)c2C)C1` [Example 5, 4-[6-(5-{3-Cyano-4-[(1-methylethyl)oxy]phenyl}-1,2,4-oxadiazol-3-yl)-5-methyl-3,4-dihydro-2(1H)-isoquinolinyl]-N-methylbutanamide], in that order: no more than 0.1 µM and no more than 0.01 µM.
As to `CC(C)Oc1ccc(-c2nc(-c3ccc4c(c3)CCN(CC(=O)NC[C@H](C)O)CC4)no2)cc1C#N` [Example 75, 2-[7-(5-{3-cyano-4-[(1-methylethyl)oxy]phenyl}-1,2,4-oxadiazol-3-yl)-1,2,4,5-tetrahydro-3H-3-benzazepin-3-yl]-N-[(2S)-2-hydroxypropyl]acetamide hydrochloride], the half-maximal effective concentration (EC50) in experiment [1] is no more than 0.1 µM; in experiment [2] it was no more than 0.01 µM.
In the same order, the values of `Cc1c(-c2noc(-c3ccc(OC(C)C)c(C#N)c3)n2)ccc2c1CCN(CC(=O)NC[C@@H](C)O)CC2` [Example 147, 2-[7-(5-{3-cyano-4-[(1-methylethyl)oxy]phenyl}-1,2,4-oxadiazol-3-yl)-6-methyl-1,2,4,5-tetrahydro-3H-3-benzazepin-3-yl]-N-[(2R)-2-hydroxypropyl]acetamide] are no more than 0.1 µM and no more than 0.01 µM.
For `CCOc1ccc(-c2nc(-c3ccc4c(c3)CCN(CC(O)CO)CC4)no2)cc1C#N` (stereo not shown) [Example 70, 5-{3-[3-(2,3-dihydroxypropyl)-2,3,4,5-tetrahydro-1H-3-benzazepin-7-yl]-1,2,4-oxadiazol-5-yl}-2-(ethyloxy)benzonitrile], in that order: no more than 0.1 µM and no more than 0.1 µM.
In the same order, the values of `CC(C)Oc1ccc(-c2nc(-c3ccc4c(c3)CCN(CC(=O)N3CC(O)C3)CC4)no2)cc1C#N` [Example 93, 5-(3-{3-[2-(3-hydroxy-1-azetidinyl)-2-oxoethyl]-2,3,4,5-tetrahydro-1H-3-benzazepin-7-yl}-1,2,4-oxadiazol-5-yl)-2-[(1-methylethyl)oxy]benzonitrile hydrochloride] are no more than 0.01 µM and no more than 0.01 µM.
As to `Cc1c(-c2noc(-c3ccc(OC(C)C)c(C#N)c3)n2)ccc2c1CCN(C(=O)CCCN)C2` [Example 41, 5-{3-[2-(4-Aminobutanoyl)-5-methyl-1,2,3,4-tetrahydro-6-isoquinolinyl]-1,2,4-oxadiazol-5-yl}-2-[(1-methylethyl)oxy]benzonitrile hydrochloride], the half-maximal effective concentration (EC50) in experiment [1] is no more than 0.1 µM; in experiment [2] it was no more than 0.01 µM.
On to `CC(C)Oc1ccc(-c2nc(-c3cccc4c3CCN(C(=O)CN)C4)no2)cc1C#N` [Example 87, 5-[3-(2-glycyl-1,2,3,4-tetrahydro-5-isoquinolinyl)-1,2,4-oxadiazol-5-yl]-2-[(1-methylethyl)oxy]benzonitrile hydrochloride], for which the EC50 in experiment [1] and in experiment [2] was no more than 0.01 µM each time.
As for `CC(C)Oc1ccc(-c2nc(-c3ccc4c(c3)CCN(C(=O)CNC(CO)CO)CC4)no2)cc1C#N` [Example 197, 5-[3-(3-{N-[2-hydroxy-1-(hydroxymethyl)ethyl]glycyl}-2,3,4,5-tetrahydro-1H-3-benzazepin-7-yl)-1,2,4-oxadiazol-5-yl]-2-[(1-methylethyl)oxy]benzonitrile hydrochloride], the EC50 in experiment [1] was no more than 0.1 µM; in experiment [2] it was no more than 0.01 µM.
